Assay results reported in the NIST ThermoML archive (doi:10.1016/j.jct.2015.12.019).
Numbers after ± are expanded uncertainties.

Experiment: refractive index (Na D-line) (dimensionless)
Conditions: 303.15 K; 101.33 kPa; Liquid; Standard Abbe refractometry

| SMILES | refractive index |
| --- | --- |
| CC(C)C(=O)O [2-methylpropanoic acid] | 1.3913 ± 0.018 |
| CCCCCCC [heptane] | 1.3844 ± 0.018 |
| O=S1(=O)CCCC1 [sulfolane] | 1.4815 ± 0.018 |
